Results taken from US20040167103A1, “Haloacetamide and azide substituted compounds and methods of use thereof” (priority 2003, published 2004).

How the values were obtained:
LNCaP cells [1] = assay: Cell growth inhibition (sulforhodamine B assay), LNCaP; type: cell-based, human; details: for Sensitivity of LNCaP cells compared with other cell lines: LNCaP the only androgen receptor expressing cell line tested; for IC50: Homo sapiens, LNCaP, SRB assay
Method: (§1) Prostate cancer cell lines were obtained from ATCC. All cells were grown in RPMI-1640 medium containing 2 mM L-glutamine supplemented with 10% fetal bovine serum (FBS) and maintained in a 5% CO2/95% air humidified atmosphere at 37° C.
Cells were plated on 96-well plates and incubated with drug-containing culture medium (200 μL/well) for 4 (DU 145, PC-3, PPC-1, and TSU) or 6 (LNCaP) days. Medium was replaced with freshly prepared batches every other day during the incubation. At the end of drug treatment, an aliquot of 50 μL of cold (4° C.) trichloroacetic acid (TCA, 50%) was gently layered on the top of growth medium in each well to make a final TCA concentration of 10%. The mixtures were incubated at 4° C. for 1 hour, and then washed 5 times with tap water to remove TCA, growth medium, low-molecular-weight metabolites, and serum proteins. The plates were air dried overnight. Next, fixed cells were stained with 50 μL of SRB solution (0.4%, wt/vol) for 10 minutes. After staining, SRB solution was decanted, and plates were quickly rinsed 5 times with 1% acetic acid to remove unbound dye and air dried overnight. The cellular protein-bound SRB was then dissolved with 200 μL unbuffered Tris base (10 mM, pH 10.5) for 30 minutes on a rocking platform shaker, and absorbance at 540 nm was measured by a plate reader.
Percentage of cell survival was calculated by absorbance at 540 nm in testing wells divided by absorbance in negative control wells (medium without the test compound). Percentages of cell survival versus drug concentrations were plotted and the concentration of drug that inhibited cell growth by 50% (IC50) was determined by nonlinear regression using WinNonlin (Pharsight Corporation, Mountain View, Calif.).
METHODS: LNCaP, DU145, PC-3, TSU, and PPC-1 cells were cultured in 96-well plates and treated with increasing concentrations of the compound of interest for 4 days. Cell survival was determined by the sulforhodamine B assay and was plotted as a percentage of control (drug-free wells) versus drug concentration. The concentration of drug that inhibited cell growth by 50% (IC50) was determined by non-linear regression. Known anticancer drugs were used as cytotoxic positive controls.

[2] = target: T1, cytosolic AR prepared from rat ventral prostates (Rattus norvegicus, UniProt P15207); assay: Androgen receptor radioligand competitive binding assay (3H-mibolerone)
T1 construct: cytosolic AR prepared from rat ventral prostates; from tissue; host or cells: rat ventral prostate cytosol
T1 sequence (P15207 1-902): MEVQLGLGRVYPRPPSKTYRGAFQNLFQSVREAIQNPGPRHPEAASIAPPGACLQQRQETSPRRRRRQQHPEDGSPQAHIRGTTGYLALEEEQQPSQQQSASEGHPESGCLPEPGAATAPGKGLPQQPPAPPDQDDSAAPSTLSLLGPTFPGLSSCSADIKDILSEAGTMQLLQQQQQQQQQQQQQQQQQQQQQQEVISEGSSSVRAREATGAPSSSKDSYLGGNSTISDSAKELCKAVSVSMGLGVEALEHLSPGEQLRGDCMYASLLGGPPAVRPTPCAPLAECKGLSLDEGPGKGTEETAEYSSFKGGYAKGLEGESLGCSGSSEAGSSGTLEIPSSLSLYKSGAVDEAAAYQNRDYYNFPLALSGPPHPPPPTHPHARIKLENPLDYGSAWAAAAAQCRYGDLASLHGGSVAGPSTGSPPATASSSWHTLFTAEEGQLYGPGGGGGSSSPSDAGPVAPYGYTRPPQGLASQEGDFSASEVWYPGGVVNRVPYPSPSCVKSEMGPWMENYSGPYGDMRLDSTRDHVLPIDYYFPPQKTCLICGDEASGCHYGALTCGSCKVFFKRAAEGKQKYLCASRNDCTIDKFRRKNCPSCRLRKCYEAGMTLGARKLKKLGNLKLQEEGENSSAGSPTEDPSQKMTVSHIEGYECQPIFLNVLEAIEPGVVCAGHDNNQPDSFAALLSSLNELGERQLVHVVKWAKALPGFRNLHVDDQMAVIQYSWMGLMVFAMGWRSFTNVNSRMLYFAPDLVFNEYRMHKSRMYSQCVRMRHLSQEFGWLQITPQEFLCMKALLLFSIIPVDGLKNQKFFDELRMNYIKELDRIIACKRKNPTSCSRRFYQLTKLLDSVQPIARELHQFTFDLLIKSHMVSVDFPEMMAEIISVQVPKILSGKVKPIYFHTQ
Method: The AR binding affinity of test compounds was determined by a radioligand competitive binding assay with cytosolic AR prepared from rat ventral prostates. […] After incubation, the protein-bound radioactivity was separated from free radioactivity by HAP precipitation. The bound radioactivity was then extracted from HAP by ethanol, and counted in a Beckman LS6800 liquid scintillation counter (Beckman Instruments Inc., Palo Alto, Calif.). Nonspecific binding was determined separately by including 1,000 nM of unlabeled MIB in the incubate. The binding data was fitted to the equation B=B0*[1-C/(IC50+C)] using WinNonlin.

[3] = test system: prostate cancer cell lines DU 145, PC-3, TSU, PPC-1 and LNCaP; assay: Cell growth inhibition (sulforhodamine B assay), five prostate cancer cell lines together; type: cell-based, human; details: statement in words
Method: as §1
(§2) Cells were plated on 96-well plates and incubated with drug-containing culture medium (200 μL/well) for 4 (DU 145, PC-3, PPC-1, and TSU) or 6 (LNCaP) days. Medium was replaced with freshly prepared batches every other day during the incubation. At the end of drug treatment, an aliquot of 50 μL of cold (4° C.) trichloroacetic acid (TCA, 50%) was gently layered on the top of growth medium in each well to make a final TCA concentration of 10%. […] The cellular protein-bound SRB was then dissolved with 200 μL unbuffered Tris base (10 mM, pH 10.5) for 30 minutes on a rocking platform shaker, and absorbance at 540 nm was measured by a plate reader.
(§3) Percentage of cell survival was calculated by absorbance at 540 nm in testing wells divided by absorbance in negative control wells (medium without the test compound). […]
(§4) METHODS: LNCaP, DU145, PC-3, TSU, and PPC-1 cells were cultured in 96-well plates and treated with increasing concentrations of the compound of interest for 4 days. Cell survival was determined by the sulforhodamine B assay and was plotted as a percentage of control (drug-free wells) versus drug concentration. […]

LNCaP cells [4] = assay: Growth curve (trypan blue cell count, 120 h), LNCaP compared with other lines; type: cell-based, human
Method: METHODS: Cells were plated at 5-10×10^4 cells/well in five 6-well plates and incubated at 37° C., 5% CO2 for 24 h to allow the cells sufficient time to attach and be in log phase growth at the start of the experiment. The media was aspirated from four of the plates and replaced with media containing vehicle control (DMSO) or drug dissolved in DMSO. The total volume of DMSO/drug added to each well was equal to 0.1% of the media volume in each well. LNCaP, PC-3, MCF-7, and CV-1 cells were treated with vehicle control, and increasing concentrations of Compound 1 and Compound 2 (0.01, 0.05, 0.1, 0.5, 1.0, 5.0, and 10.0 μM). Three wells were treated with the same concentration of the drugs or DMSO for each treatment condition listed above. The cells from the remaining 6-well plate were collected and counted to determine plating efficiency. The 6-well plates containing DMSO/drug were incubated for 120 h at 37° C., 5% CO2. After 120 h, the media from each well was collected along with trypsinized cells and centrifuged at 150×g for 4 min. The cells were resuspended in 1 mL of media, from which 90 μl was taken and combined with 10 μl trypan blue for counting on a hemacytometer.

LNCaP cells [5] = assay: TUNEL assay (apoptosis, DNA fragmentation); type: cell-based, human; details: LNCaP cells exposed for 24 hours, relative to 0.1% DMSO vehicle control
Method: METHODS: DNA fragmentation of apoptotic cells was monitored by the TUNEL assay as described by the supplier. Briefly, LNCaP cells were plated at 2×10^5 cells/well in 2-well chamber slides and incubated at 37° C., 5% CO2 for 24 h to allow the cells sufficient time to attach and be in log phase growth at the start of the experiment. The media was aspirated and replaced with media containing vehicle control (DMSO) or drug dissolved in DMSO. The total volume of DMSO/drug added to each well was equal to 0.1% of the media volume in each well. LNCaP cells were treated with vehicle control, and increasing concentrations of Compound 1 and Compound 2 (0.1, 1.0, and 10.0 μM) for 24-48 h. Two wells were treated with the same concentration of the drugs or DMSO for each treatment condition listed above. The media was collected along with the trypsinized cells and centrifuged at 150×g for 4 min. […] Green and red fluorescence emissions were observed microscopically using 520 nm and >620 nm filters, respectively.
RESULTS: The TUNEL assay is used to determine whether cells are undergoing apoptosis (cell death mechanism) as a result of drug treatment. […] TUNEL assay incorporates a dye that labels the 3′ ends of such DNA fragments which are then visualized by fluorescence. […]

DU 145 cells = assay: Cell growth inhibition (sulforhodamine B assay), DU145; type: cell-based; details: Homo sapiens, DU-145, 96 h, SRB assay, 4 days treatment
Method: as §1, §2, §3, §4

PC-3 cells = assay: Cell growth inhibition (sulforhodamine B assay), PC-3; type: cell-based; details: Homo sapiens, PC-3, 96 h, SRB assay, 4 days treatment
Method: as §1, §2, §3, §4

TSU cells = assay: Cell growth inhibition (sulforhodamine B assay), TSU; type: cell-based; details: Homo sapiens, 96 h, SRB assay, 4 days treatment
Method: as §1, §2, §3, §4

PPC-1 cells = assay: Cell growth inhibition (sulforhodamine B assay), PPC-1; type: cell-based; details: Homo sapiens, PPC-1, 96 h, SRB assay, 4 days treatment
Method: as §1, §2, §3, §4

In the case of C[C@](O)(COc1ccc(NC(=O)CBr)cc1)C(=O)Nc1ccc([N+](=O)[O-])c(C(F)(F)F)c1 [Compound 1], the “Sensitivity of LNCaP cells compared with other cell lines” value (LNCaP cells [1]) is reported as “not more sensitive”, the Ki [2] is reported as 13.9 ± 1.4 nM and the “IC50 values in inhibiting the growth of all five prostate cancer cell lines” value [3] is reported as “low micro-molar range”. The “Growth inhibitory activity against various cancer cell lines” value (LNCaP cells [4]; LNCaP versus PC-3, MCF-7 and CV-1 cells, 0.01-10.0 μM) was “non-selective growth inhibitory activity” and the “Apoptosis, DNA fragmentation (green fluorescence)” value (LNCaP cells [5]) was “exhibit green fluorescence”.

In the case of C[C@](O)(COc1ccc(NC(=O)CCl)cc1)C(=O)Nc1ccc([N+](=O)[O-])c(C(F)(F)F)c1 [Compound 2], the “Sensitivity of LNCaP cells compared with other cell lines” value (LNCaP cells [1]) is reported as “not more sensitive”, the Ki [2] is reported as 1.9 ± 0.3 nM and the “IC50 values in inhibiting the growth of all five prostate cancer cell lines” value [3] is reported as “low micro-molar range”. For the same molecule, the “Fold sensitivity of LNCaP cells over PC-3 or CV-1 cells” value (LNCaP cells [4]; growth curve) was “approximately 10 fold” and the “Apoptosis, DNA fragmentation (green fluorescence)” value (LNCaP cells [5]) was “similar”.

Work on C[C@@H]1CC2=CC(=O)CC[C@@H]2[C@H]2CC[C@@]3(C)[C@@H](CC[C@]3(C)O)[C@@H]21 [Compound 3H-MIB, 3H-mibolerone] yielded a Kd ([2]; determined in preliminary experiments, read-out: Kd, equilibrium dissociation constant of 3H-MIB) of 0.19 ± 0.01 nM.

N[C@@H](Cc1ccc(N(CCCl)CCCl)cc1)C(=O)O [Melphalan] gave an IC50 (DU 145 cells; Melphalan line, unit nM) of 31 nM, an IC50 (PC-3 cells; Melphalan line, unit nM) of 30.4 ± 3.1 nM and an IC50 (TSU cells; Melphalan line, unit nM) of 4 ± 0.2 nM. It also gave an IC50 (PPC-1 cells; Melphalan line, unit nM) of 16.2 nM and an IC50 (LNCaP cells [1]; 4 or 6 days treatment, Melphalan line, unit nM) of 10.3 nM.

Molecule C[C@@](O)(CBr)C(=O)Nc1ccc([N+](=O)[O-])c(C(F)(F)F)c1 [S-NTBA] has an IC50 (DU 145 cells) of 4700 ± 300 nM, an IC50 (PC-3 cells) of 3100 ± 500 nM and an IC50 (TSU cells) of 3500 ± 200 nM. It also gave an IC50 (PPC-1 cells) of 2200 ± 200 nM and an IC50 (LNCaP cells [1]; 4 days or 6 days treatment) of 1300 ± 200 nM.
